For orientation: MIC means the lowest concentration that inhibits growth of the organism.

Converted amounts (≈) assume the structure as drawn.

Format in all cases: cell-based
Test [1] deals with Staphylococcus aureus NRS-100. The test can be described thus: MIC (50% NHS). The note with it: NRS100; Staphylococcus aureus NRS-100, 50% NHS.
Test [2] deals with Staphylococcus aureus NRS-384. The test can be described thus: MIC (50% NHS). The note with it: NRS384; Staphylococcus aureus NRS-384, 50% NHS.
Test [3] has as its system Enterococcus faecium ATCC-700221. The experiment in a line: MIC (50% NHS). The following applies: ATCC700221; Enterococcus faecium ATCC-700221, 50% NHS.
Test [4] relates to Klebsiella pneumonia ATCC-700603. The test can be described thus: MIC (50% NHS). The note with it: Klebsiella pneumoniae, ATCC700603; Klebsiella pneumonia ATCC-700603, 50% NHS.
Test [5] relates to Escherichia coli ATCC-25922. The test can be described thus: MIC in the presence of normal human serum (50% NHS). The note with it: ATCC25922; Escherichia coli ATCC-25922, 50% NHS, Table 6; read-out: MIC. An excerpt:
As used herein, the term “MIC” refers to minimum inhibitory concentrations. Minimum inhibitory concentrations may be determined by broth microdilution according to the Clinical and Laboratory Standards Institute guidelines (see, e.g., […]-A8. Methods for dilution antimicrobial susceptibility tests for bacteria that grow aerobically: approved standard, 8th Ed.; […] One example for measuring minimum inhibitory concentrations may be found in Reck et al., 2012, J. Med. Chem. 55:6916-6933, the disclosure of which is incorporated by reference. Inoculants may be incubated on blood agar plates for 18 to 24 hours. Incubation may occur at a temperature from about 35° C. to about 37° C. […] In serum supplemented experiments, the testing medium (e.g., DMSO solution) and human serum may be mixed. The ratio of testing medium to human serum may be 1:1 (vol:vol). Plates may be read by spectrophotometry at 620 nm. Unless indicated otherwise, all inhibitory concentrations recited in the specification relate to MICs. The MIC tests were based on broth microdilution method in CLSI-M7. […] Solutions of varying concentrations of DMSO were prepared in wells of a v-bottom 96-well plate (Axygen-WIPP02280). A multi-pipette was used to perform serial dilutions as necessary. From well to well, the drug concentrations were 6.4, 3.2, 1.6, 0.8, 0.4, 0.2, 0.1, 0.05, 0.025, 0.0125, 0.00625 and 0 mg/ml in DMSO. For extremely potent antibiotic, the starting concentrations were adjusted accordingly. This was the drug mother plate. Daughter plates were prepared by placing 98 μl of a testing medium into each well of a u-bottom 96-well plate (Costar 3788). An aliquot of each 2 μl solution from each well of the mother plate was then transferred into the corresponding wells of the daughter plate using a multi-pipette work station (CyBi®-SELMA). Testing media were selected based on CLSI-M7, M11 and […]. Cation adjusted Mueller Hinton Broth (CA-MHB-212322) was the testing medium for majority of bacterial species. Brucella medium (BD-211088) supplemented with 5% LHB, 0.5% hemin and 0.1% vitamin K1 (Sigma-95271) was the testing medium for anaerobic bacteria. One day prior to the day of MIC test, bacterial strains were streaked out from -80° C. glycerol stock onto Trypticase Soy Agar (TSA) plates (Brucella blood agar for anaerobic bacteria) and incubated at 37° C. for 20 hours (in anaerobic condition for anaerobic bacteria, e.g., 80% N2, 10% H2 and 10% CO2). Single colonies of bacteria were picked by using an inoculation loop (Greiner-731175) and suspended into 5 ml sterile saline. The turbidity of the suspension was adjusted to 0.10 (Siemens MicroS can turbidity meter), which implies a concentration of colony forming units (“CFU”) of approximately 1.0×10^8 CFU/ml. The bacterial suspension was diluted 100× in testing media. For MIC experiments with NHS, testing medium and human serum (Equitech Bio Inc. BRH-949908) were mixed in the ratio of 1:1. This was used for inoculation of the daughter plates. An aliquot of 100 μl of the bacterial suspension was inoculated into each well of the daughter plates using a multi-pipette. […] The plates were incubated in ambient atmosphere and at 37° C. in an incubator for 20 hours (for anaerobic bacteria in an anaerobic condition as described above for 48 hours). The MIC values were determined and based on the standards of CLSI methods M7-A7, broth microdilution method. […] Test compounds were compared to control antibiotics Penicillin G (Sigma-13752) and levofloxacin (Sigma-28266). […] Additionally, the MIC's of another gyrase inhibitor (“GSK”) with a structure different from the inventive compounds and the antibacterial levofloxin was measured. MIC are given in μg/mL.

Test [6] deals with Escherichia coli ATCC-BAA-2340. The experiment in a line: MIC (50% NHS). The note with it: ATCCBAA2340; Escherichia coli ATCC-BAA-2340, 50% NHS.
Test [7] has as its system Citrobacter werkmanii Brenner ATCC-51114. The test can be described thus: MIC (50% NHS). The following applies: ATCC51114; Citrobacter werkmanii Brenner ATCC-51114, 50% NHS.
Test [8] deals with Staphylococcus aureus ATCC-29213. The test can be described thus: MIC (50% NHS). The note with it: ATCC29213; Staphylococcus aureus ATCC-29213, 50% NHS.
Test [9] deals with Pseudomonas aeruginosa ATCC-BAA-47 (PAO1). The test can be described thus: MIC (50% NHS).
The subject of test [10] is Escherichia coli CCUG-59353. The test can be described thus: MIC (50% NHS). The following applies: CCUG59353; Escherichia coli CCUG-59353, 50% NHS.
Test [11] relates to Proteus mirabilis ATCC-29906. The experiment in a line: MIC (50% NHS). The following applies: ATCC29906; Proteus mirabilis ATCC-29906, 50% NHS.
The test system of test [12] is Enterobacter cloacae ATCC-222. The experiment in a line: MIC (50% NHS). The note with it: ATCC222; Enterobacter cloacae ATCC-222, 50% NHS.
Test [13] relates to Enterobacter cloacae ATCC-BAA-1143. The experiment in a line: MIC (50% NHS). The note with it: ATCCBAA1143; Enterobacter cloacae ATCC-BAA-1143, 50% NHS.
In test [14] the test system is Enterobacter aerogenes ATCC-13048. The test can be described thus: MIC (50% NHS). The following applies: Klebsiella aerogenes, ATCC13048; Enterobacter aerogenes ATCC-13048, 50% NHS.
The test system of test [15] is Acinetobacter baumannii ATCC 17978. The experiment in a line: MIC (50% NHS). The following applies: ATCC17978; Acinetobacter baumannii ATCC 17978, 50% NHS.
The test system of test [16] is Staphylococcus aureus WX1-009. The experiment in a line: MIC (50% NHS). The note with it: WX1009; Staphylococcus aureus WX1-009, 50% NHS.
Test [17] has as its system Enterococcus faecalis ATCC-29212. The experiment in a line: MIC (50% NHS). The following applies: ATCC29212; Enterococcus faecalis ATCC-29212, 50% NHS.
Test [18] deals with Escherichia coli NCTC-13476. The test can be described thus: MIC (50% NHS). The note with it: NCTC13476; Escherichia coli NCTC-13476, 50% NHS.
In test [19] the test system is Serratia marcescens Bizio ATCC-29021. The experiment in a line: MIC (50% NHS). The following applies: ATCC29021; Serratia marcescens Bizio ATCC-29021, 50% NHS.
Test [20] relates to Klebsiella pneumonia ATCC-43816. The experiment in a line: MIC (50% NHS). The note with it: Klebsiella pneumoniae, ATCC43816; Klebsiella pneumonia ATCC-43816, 50% NHS.

Consider `C[C@H]1COc2c(N3CCN(C)CC3)c(F)cc3c(=O)c(C(=O)O)cn1c23` [Levofloxin, reference compound], for which the MIC in test [1] was 0.5 µg/mL (≈ 1.38 µM); in test [2] it was 1 µg/mL (≈ 2.77 µM); in test [3], > 2 µg/mL; in [4], 0.5 µg/mL (≈ 1.38 µM); in test [5], 0.031 µg/mL; in [6], > 2 µg/mL. For the same compound, the MIC in test [7] was 0.25 µg/mL (≈ 0.692 µM); in [8], 0.5 µg/mL (≈ 1.38 µM); in test [9], 1 µg/mL (≈ 2.77 µM); in [10], > 2 µg/mL; in [11], 0.25 µg/mL (≈ 0.692 µM); in test [12] it was 0.06 µg/mL (≈ 0.166 µM). For the same compound, the minimal inhibitory concentration (MIC) in test [13] was 0.06 µg/mL (≈ 0.166 µM); in test [14] it was 0.13 µg/mL (≈ 0.36 µM); in test [15] it was 1 µg/mL (≈ 2.77 µM); in [16], > 2 µg/mL; in test [17], 2 µg/mL (≈ 5.53 µM); in test [18] it was > 2 µg/mL. Moreover, the MIC in test [19] and in test [20] was 0.13 µg/mL (≈ 0.36 µM) throughout.
